Test [1] in a line: Broiler chicken trial: weight and feed conversion ratio with SAC in feed (Experiment 7). It counts as in vivo, broiler chickens. The source says:
This work aimed to investigate the effectiveness of an antistress containing composition or a stress alleviating composition (conveniently referred to as “SAC”), ([…], vitamin C and long chain amino acid mix) versus a calorie adjusted control, in lowering the physiological responses to stress and promoting growth in an intensive production systems (broiler chickens). In addition, the effect of the SAC agent in combination with existing industry feed additives (Performance enhancers: antibiotics and indigestible carbohydrates (oligosaccharides) was investigated in broiler chickens.
432 day-old male broiler chicks were used in the experiment carried out over six weeks in a poultry research unit. Chicks were assigned at random to one of 12 groups: • Group 1—Control 32° C. (n=36) • Group 2—Control 28° C. (n=36) • Group 3—Experimental Formulation A 32° C. (n=36) • Group 4—Experimental Formulation A 28° C. (n=36) • Group 5—Experimental Formulation B 28° C. (n=36) • Group 6—Experimental Formulation C 28° C. (n=36) • Group 7—Performance Enhancer 32° C. (n=36) • Group 8—Performance Enhancer 28° C. (n=36) • Group 9—Oligosaccharide 32° C. (n=36) • Group 10—Oligosaccharide 28° C. (n=36) • Group 11—Experimental Formulation A+Performance Enhancer 32° C. (n=36) • Group 12—Experimental Formulation A+Oligosaccharide 32C (n=36)
Once selected, groups of 6 birds were housed per cage in heated brooders (i.e. One treatment group (36 birds) per 6 cages). Each group had access to pelleted feed (NRM New Zealand) in excess of requirements during the trial conforming to standard poultry use Ross broiler specification), and water was freely available. During the manufacturing of the feed the following treatments were included.
SAC Agent (2-methyl-1,2-di-3-pyridyl-1-propanone, vitamin C, valine, isoleucine and leucine mixture), mixed with a glucose-based polymer carrier (0.01 g drug to 1 g of carrier) before addition to the feed in the following doses. • Formulation A (per kg feed): • 0.01 g 2-methyl-1,2-di-3-pyridyl-1-propanone • 0.1 g Vitamin C • 5 mg Valine, isoleucine and leucine • Formulation B (per kg feed): • 0.005 g 2-methyl-1,2-di-3-pyridyl-1-propanone • 0.05 g Vitamin C • 0.5 mg Valine, isoleucine and leucine • Formulation C (per kg feed): • 0.001 g 2-methyl-1,2-di-3-pyridyl-1-propanone • 0.01 g Vitamin C • 0.1 mg Valine, isolcucine and leucine • Performance Enhancers: • (Avilamycin (Surmax): Elanco Animal Health, Indianapolis, USA) • Dose: <0.2 g/kg (antibiotic concentration of 0.1 (g/ml). • Mannan oligosaccharide—indigestible carbohydrate (Bio-Mos: Alltech, Inc.USA) • Dose: 1 g/kg
Daily feed intake was recorded for each group of birds, and all birds were weighed weekly.
Birds were either kept at optimum temperature levels (32° C.) or exposed to cold stress (28° C.) from day 1 until day 14 of the trial. After 14 days they were removed to larger raised horizontal cages where all groups were maintained at 21° C. The birds remained in these cages for the remainder of the trial after which time they were slaughtered. After slaughter, meat from 6 birds per group was analysed for fat composition.

Test [2] can be described thus: Reproductive success of ewes (Experiment 11). It counts as in vivo, sheep. To be noted: over 3 seasons following original metyrapone treatments, vs control group. The source says: Female sheep (20 ewes) chosen from original experiments in experiments 4, 5 and 6 were studied for seasonal reproductive success for up to 3 seasons following the original metyrapone treatments. These animals received no further metyrapone treatments and were kept in a flock with a similar selected group of 20 control age and weight matched counterparts that had not received metyrapone treatment.
In a separate experiment using the different sheep with no previous exposure to treatments, 20 age and bodyweight matched ewes were run as a flock. Ten of these ewes received three treatments of metyrapone and vitamin C, isoleucine, leucine and valine at a dosage of 0.001 g metyrapone/0.01 g vitamin c, 0.0005 g each of valine, isoleucine and leucine per kg liveweight in an oral form without anthelmintics. These three treatments occurred one month prior to conception, in the first and third trimester of pregnancy. The remaining ten ewes received a similar handling and control administration of a glucose-amino acid mixture.

Test [3] in a line: Dose response of metyrapone, growth promotant effects in pigs (Experiment 9). It counts as in vivo. To be noted: oral three times over six weeks. The procedure:
(§1) In four different species (sheep, poultry, pigs and rats) different dosages of the compound metyrapone alone or in combination with vitamin C, isoleucine, leucine, valine were tested for growth promotant effects.
(§2) These mixtures were administered by oral routes three times over six weeks and a control group was administered a glucose mix at the same time (calorie equivalent). Animal growth in terms of liveweight gains were measured over periods of time, as was feed consumed.

A short description of test [4]: Growth rate of sheep given metyrapone with anthelmintic treatment (Experiments 3 and 6). To be noted: no additional stresses; metyrapone 5 mg/kg at the time of anthelmintic treatment. Format: in vivo. The source says:
In a first series of experiments, sheep were divided into pairs from initial twins. All the animals were grazed together, on the same paddocks, from pairing through to the end of the trial. They were thus exposed to the same potential parasite load and the same access to feed and water. The animals were also genetically similar (i.e at least one shared parent). Experiments were begun when the animal was 3 months of age. One half of the pairings were rounded up once a week and run through a race (control group). Any normal farm maintenance that was needed was done at this time, so that the time that animals may have been held was variable from week to week but consistent across the entire group and with the experimental group (see below). Faecal samples were also collected and both total egg and nematode egg counts calculated, and visual inspection for ectoparasites made. Animals were subject to the same anthelmintic treatments consisting of three pour-on (Ivomec pour on, MSD 1 ml per 50 kg), three oral (Endex, Novartis—1 ml per 5 kg) and three injectable treatments (levamisole. 7.5 mg/kg) per year (every four months). In a similar set of experiments to experiment 1, the animals in the chronic stress group also all received a chemical substance metyrapone (in an oral form at 5 mg/kg live weight) at the time of anthelmintic treatment. […]

Test [5] in a line: Dose response and dose composition, growth promotant effects (Experiment 9). It counts as in vivo, sheep, poultry, pigs and rats. To be noted: oral three times over six weeks. The procedure:
as §1, §2

A further test has as its system nematode. Briefly: Anthelmintic efficacy (faecal egg / nematode counts) in stressed sheep given metyrapone (Experiments 3-5). Format: in vivo. The source says: In a first series of experiments, sheep were divided into pairs from initial twins. All the animals were grazed together, on the same paddocks, from pairing through to the end of the trial. They were thus exposed to the same potential parasite load and the same access to feed and water. The animals were also genetically similar (i.e at least one shared parent). Experiments were begun when the animal was 3 months of age. One half of the pairings were rounded up once a week and run through a race (control group). Any normal farm maintenance that was needed was done at this time, so that the time that animals may have been held was variable from week to week but consistent across the entire group and with the experimental group (see below). Faecal samples were also collected and both total egg and nematode egg counts calculated, and visual inspection for ectoparasites made. The other half of the pairings (chronic stress group) were exposed to the same handling […] (consistent with the single weekly procedure above) and in addition to this were run around a paddock by either a human or dog (alternating) for 10 minutes. In this manner a mild, chronic, handling stress was imposed on these animals. Races and handling facilities were cleaned between animal movements to avoid any risk of parasitic contamination. Animals were subject to the same anthelmintic treatments consisting of three pour-on (Ivomec pour on, MSD 1 ml per 50 kg), three oral (Endex, Novartis—1 ml per 5 kg) and three injectable treatments (levamisole. 7.5 mg/kg) per year (every four months). In a similar parallel experiment the control group was identical and the paired group to this control (acute stress) received identical treatment to the control group and in addition an acute stress one day prior to anthelmintic treatment. This consisted of chasing the group three times during the day with a dog for 15 min duration each time. The faecal egg count and ectoparasite assessment was the same in both groups at time of the first experimental anthelmintic treatment. […]

A further test concerns faecal count (parasites). Put plainly: Increase of anthelmintic effect, monthly faecal count (Experiment 10). It counts as in vivo, sheep. To be noted: anthelmintics and agents given every four months; faecal count each month. The procedure:
In a further experiment similar to that described in experiments 3 and 4 the increased anthelmintic effect from vitamin C, isoleucine, valine and leucine alone or in combination with metyrapone, and metyrapone and pyrrolopyrimidine was tested. Anthelmintics and these agents were given every four months and faecal count calculated each month in between treatments.

The nature of test [6]: Stress relieving compounds given with anthelmintic, growth of ewes over 12 months (Experiment 13). To be noted: for effect on growth compared to control animals (FIG. 20): ewes treated every 2 months with anthelmintic plus agent; for effect on growth: alone or added to metyrapone. Format: in vivo, sheep. The procedure: […] A further 7 ewes received either astressin 0.0005 g or astressin and metyrapone (astressin at 0.0005 g and metyrapone at 0.001 g) and the vitamin C and amino acid mixture as above.
Bodyweight was measured monthly and animals were treated equivalently in all other aspects.

The mark [7] stands for this setting: week 2, end of the cold stress period 28° C.
Setting [8] is: week 3, after the stressor was removed (21° C.).
Where [9] appears, read: week 4, after the stressor was removed (21° C.).

Take `COC[C@H]1O[C@@H](OC2OC[C@@H]3O[C@]4(O[C@H]3[C@H]2OC(=O)C(C)C)O[C@H](C)[C@@](O)(C(C)=O)[C@@H]2OCO[C@H]24)[C@@H](OC)[C@@H](O)[C@@H]1O[C@@H]1O[C@H](C)[C@H](OC)[C@H](O[C@H]2C[C@@]3(C)OC4(C[C@@H](O)[C@H](O[C@H]5C[C@@H](O)[C@H](OC(=O)c6c(C)c(Cl)c(O)c(Cl)c6OC)[C@@H](C)O5)[C@@H](C)O4)O[C@@H]3[C@@H](C)O2)[C@H]1O` (stereo partly shown) [antibiotic performance enhancer, Avilamycin]: in test [1] (exposed to cold stress, during cold stress and afterwards), the “rate of growth in comparison to birds given the SAC” value is recorded as “lower rate of growth”. Moreover, the “weight heavier than control birds” value was found to be 3.5 g in test [1] (week 1, cold stress 28° C.); 6.3 g in test [1] (setting [7]); 42.6 g in test [1] (setting [8]); 35.2 g in test [1] (setting [9]). In addition, the “weight heavier than control birds, percent” value worked out at 2.0% in test [1] (week 1, cold stress 28° C.); 1.3% in test [1] (setting [7]); 4.5% in test [1] (setting [8]); 2.2% in test [1] (setting [9]).
Regarding `CC(C)(C(=O)c1cccnc1)c1cccnc1` [metyrapone, 2-methyl-1,2-di-3-pyridyl-1-propanone], the birthweight of lambs result in test [2] is listed as “slightly greater than seen in the control group”. Also, in test [3], the “% gain in production with dose” value was “a low and a high dose were effective however a mid-range dose did not produce the same gains”. Also, the “net gain, growth over the year (mean)” value in test [4] was determined as 18 kg. Also, the “% gain in production with increase in dose” value in test [5] (all species except pigs) is “an increase in gain was seen with an increase in dose of metyrapone levelling out”. Further, in test [5] (all species), the “growth (liveweight gain)” value was “increased growth”. Further, the “differences between acute stress and control groups” value with nematode (acute stress group receiving metyrapone oral 5 mg/kg with anthelmintic) is “no differences were seen between the acute and control groups”. Moreover, the “efficacy of anthelmintics compared with the non-stressed groups” value with nematode (chronic stress group, metyrapone oral 5 mg/kg live weight at the time of anthelmintic treatment) is reported as “same efficacy of anthelmintics as the non-stressed groups”. Moreover, the “time until nematode counts exceeded recommended number for dosing” value in the test on nematode (one treatment including metyrapone, chronic and acute stressed animals vs control group) was “no differences to the control group”. The “anthelmintic effectiveness (faecal count)” value in the test on faecal count (parasites) is given as “more effective than with the anthelmintic alone”. The “Kg of Growth in 12 months” value was 13 ± 3 kg in test [6] (0.0001 g/kg metyrapone) and 14 ± 3 kg in test [6] (0.0001 g/kg metyrapone + control). In addition, the “effect on growth compared to control animals (FIG. 20)” value in test [6] is given as “larger effect”.
Regarding `CC#C[C@]1(O)CC[C@H]2[C@@H]3CCC4=CC(=O)CCC4=C3[C@@H](c3ccc(N(C)C)cc3)C[C@@]21C` [mifepristone], the “Kg of Growth in 12 months” value in test [6] (0.0001 g/kg mifepristone) was determined as 4 ± 4 kg; in test [6] (0.0005 g/kg mifepristone), 8 ± 2 kg. In addition, the “effect on growth compared to control animals (FIG. 20)” value in test [6] is on record as “small positive effect”. For the same compound, the effect on growth entry in test [6] (mifepristone dose 0.0001 g/kg) is listed as “no effect compared to control”; in test [6] (mifepristone dose 0.0005 g/kg) it was “small increase in growth over control treatments”.
`CCCN(CCC)C(=O)C(CCC(=O)O)NC(=O)c1ccccc1` (stereo not shown) [proglumide]: the “effect on growth compared to control animals (FIG. 20)” value in test [6] is recorded as “small positive effect”.
Turning to astressin, in test [6] (0.0005 g/kg astressin), the “Kg of Growth in 12 months” value came to 10 ± 4 kg.

Values taken from patent US6852333B1, “Agents and methods for promoting production gains in animals” (The Horticulture and Food Research Institute of New Zealand …, priority 1999, dated 2005).
